Results published in patent US10568892B2, “Cycloartane tetracyclic triterpenoid compound, preparation method therefor and use thereof” (Hefei Cosource Pharmaceuticals Inc., priority 2016, dated 2020).

Key:
SD rat = test: Rat model of heart failure induced by adriamycin; type: in vivo
Experimental: 2 mg/kg of adriamycin was injected through tail vein to a SD rat for modeling, once a week for 6 weeks. After the modeling was completed, intragastrical administration of Compound 369 at low (3 mg/kg) and high (9 mg/kg) doses was carried out daily for 4 weeks. In the negative control group, the same volume of normal saline was injected through the tail vein once a week for 6 weeks, thereafter the same volume of vehicle was intragastrically administrated daily for 4 weeks. After the end of the administration, the blood pressure was measured by the carotid artery intubation. The left ventricular end diastolic pressure (LVEDP), left ventricular systolic pressure (LVSP), maximal rate of left ventricular systolic pressure (+dp/dt max), and maximal rate of left ventricular diastolic pressure (−dp/dt max) were recorded, and the average values thereof were calculated.
After the hemodynamic indexes were measured, the chest was opened and the heart and lung were quickly taken out. They were immediately placed in the normal saline at 4° C. to wash down the remaining blood. The fats, blood vessels and atrial tissues on the heart were discarded. The heart was sucked dry by the filter paper, and accurately weighed using the electronic balance to record the heart weight. The ratio of heart weight to body weight (HW/BW), i.e., the heart mass index (HMI), was calculated.

[1] = Single-dose toxicity (MTD) in KM mice; type: in vivo; conditions: in vivo, po; KM mouse; single intragastrical administration; read-out: Maximum tolerance dose (MTD)
Excerpt: (§1) The results of the experimental study on the toxicity of Compound 369 administrated through a single intravenous or intragastrical administration in SD rats and KM mice are shown in Table 9.

SD rats = test: Rat myocardial ischemia model with coronary artery ligation and reperfusion (arrhythmia incidence); type: in vivo; conditions: for Death (%) / Death n / Ventricular fibrillation (%) / Ventricular fibrillation n / Ventricular premature beat (%) / Ventricular premature beat n / Ventricular tachycardia (%) / Ventricular tachycardia n: injection (sublingually) 5 min before ischemia
Excerpt: Method: SD rats were anesthetized with pentobarbital, and a cervical midline incision was made to separate and cut off the trachea such that it was connected to a respirator. The skin was cut along the midline of the left clavicle of the rat, and the chest was opened between the left third and fourth ribs to gently squeeze out the heart. The pericardium was opened, the needle was inserted at the left edge of the pulmonary artery cone and 2 mm at the lower edge of the left atrial appendage. The 6-0 non-invasive suture was threaded through the superficial myocardium, with the left anterior descending coronary artery (LAD) located thereon. After stabilization for 5 min, a double-layer plastic cannula was put on, and the cable tie was tighten to complete the myocardial ischemia induced by left coronary artery occlusion. The criterion for myocardial ischemia is the occurrence of myocardial infarction (St-segment ran up or T-wave was shown as high sharp wave) in the electrocardiogram and the presence of local cyanosis in the heart. After 5 min of myocardial ischemia, the inner cannula was withdrawn, that is, the wire knot was released for reperfusion, and the electrocardiogram of reperfusion in the rat was recorded.
The administration was performed at 5 min before the ischemia by coronary artery ligation, and the administration mode was injection administration (sublingually).

[2] = Pharmacokinetics in SD rats; type: in vivo, rat; conditions: rat, in vivo
Experimental: Method: twelve SD male rats were divided into four groups: 2 mg/kg of Compound 369 or cyclovirobuxine D was single dose through the intravenous injection or intragastrical administration, respectively. In the intravenous and intragastrical groups, blood samples (about 0.3 Ml) were collected from the posterior orbital venous plexus pro-dose and 0.25 h, 0.5 h, 1 h, 2 h, 4 h, 6 h, 8 h, and 12 h post-dose. The concentrations of Compound 369 and cyclovirobuxine D in plasma samples were determined by LC-MS/MS, and the pharmacokinetic parameters were calculated by DAS.3.0 software.

[3] = Single-dose toxicity (MTD) in SD rats; type: in vivo; conditions: in vivo, SD rat, read-out: Maximum tolerance dose (MTD)
Excerpt: as §1

[4] = High dose 9 mg/kg intragastrical daily for 4 weeks
[5] = Low dose 3 mg/kg intragastrical daily for 4 weeks

## CN[C@H]1CC[C@]23C[C@]24CC[C@]2(C)C(C(C)=O)=CC[C@@]2(C)[C@@H]4CC[C@H]3C1(C)C [Compound 369, (3β,5α)-4,4,14-trimethyl-3-(methylamino)-9,19-cyclopregnan-16-en-20-one]
SD rat; 3 and 9 mg/kg intragastrical daily for 4 weeks
  Therapeutic effect on heart failure induced by adriamycin (in words): a certain therapeutic effect
SD rat; [4]
  ADBP: 47.0 ± 17.1 mmHg
  ASBP: 84.9 ± 13.3 mmHg
  BW: 380.3 ± 24.8 g
  HW: 1185.0 ± 135.3 mg
  HW/BW: 3.11 mg/g
  LVEDP: −14.2 ± 8.8 mmHg
  LVSP: 97.3 ± 8.9 mmHg
  dp/dtmax: 2402.3 ± 427.6 mmHg/s
  −dp/dt max: −2098.7 ± 345.9 mmHg/s
SD rat; [5]
  ADBP: 40.4 ± 15.3 mmHg
  ASBP: 80.8 ± 17.3 mmHg
  BW: 308.5 ± 34.65 g
  HW: 1007.4 ± 145.3 mg
  HW/BW: 3.27 mg/g
  LVEDP: −12.7 ± 10.0 mmHg
  LVSP: 96.5 ± 9.1 mmHg
  dp/dtmax: 2317.7 ± 715.4 mmHg/s
  −dp/dt max: −2013.5 ± 405.4 mmHg/s
[1]
  MTD: 1000 mg/kg
SD rats; 1 mg/kg
  Death (%): 38%
  Death n: 3
  Ventricular fibrillation (%): 63%
  Ventricular fibrillation n: 5
  Ventricular premature beat (%): 100%
  Ventricular premature beat n: 8
  Ventricular tachycardia (%): 100%
  Ventricular tachycardia n: 8
SD rats; 10 mg/kg
  Death (%): 0 (0) %
  Death n: 0 (0)
  Ventricular fibrillation (%): 14%
  Ventricular fibrillation n: 1
  Ventricular premature beat (%): 86%
  Ventricular premature beat n: 6
  Ventricular tachycardia (%): 71%
  Ventricular tachycardia n: 5
SD rats; 30 mg/kg
  Death (%): 0 (0) %
  Death n: 0 (0)
  Ventricular fibrillation (%): 0 (0) %
  Ventricular fibrillation n: 0 (0)
  Ventricular premature beat (%): 83%
  Ventricular premature beat n: 5
  Ventricular tachycardia (%): 17%
  Ventricular tachycardia n: 1
SD rats; 1 to 30 mg/kg, dose-response relationship
  Numbers of animals (incidences) with ventricular premature beat, ventricular tachycardia, ventricular fibrillation, and death vs vehicle (in words): lower
[2]; male, SD, 2 mg/kg
  F: 35%
[2]; male, SD, iv, 2 mg/kg
  AUC(0-t): 249 ng·h/mL
  Cmax: 103 ng/mL
  Tmax: 0.25 h
  half-life: 4.1 h
[2]; male, SD, po, 2 mg/kg
  AUC(0-t): 84.6 ng·h/mL
  Cmax: 11.4 ng/mL
  Tmax: 5 h
  half-life: 3.5 h
[2]
  Exposures in plasma (AUC and Cmax values) vs cyclovirobuxine D (in words): slightly lower than that of cyclovirobuxine D
  Half-life (T1/2) vs cyclovirobuxine D (in words): significantly shorter than that of cyclovirobuxine D
[3]; po, single intragastrical administration
  MTD: 1000 mg/kg
[3]; single intravenous injection
  MTD: 45 mg/kg
